Experimental data from the kinase profiling compilation of Christmann-Franck et al. (2016).

Experiments:
Test in all cases: KINOMEscan competition binding
Conditions in all cases: compound 0.1 µM
[1] = test system: ABL1 (human), P00519 [M351T]
[2] = target: ABL2 (human) (UniProt P42684)
[3] = target: ADCK4 (human) (UniProt Q96D53)
[4] = target: AXL (human) (UniProt P30530)
[5] = target: CAMK1G (human) (UniProt Q96NX5)
[6] = target: CAMK2G (human) (UniProt Q13555)
[7] = target: CDK11B (human) (UniProt P21127)
[8] = target: CDK2 (human) (UniProt P24941)
[9] = target: CDK3 (human) (UniProt Q00526)
[10] = target: CDK4 CCND3 (human) (UniProt P11802+P30281)
[11] = target: CSNK2A1 (human) (UniProt P68400)
CSNK2A1 (human), sequence (P68400 whole entry, looked up): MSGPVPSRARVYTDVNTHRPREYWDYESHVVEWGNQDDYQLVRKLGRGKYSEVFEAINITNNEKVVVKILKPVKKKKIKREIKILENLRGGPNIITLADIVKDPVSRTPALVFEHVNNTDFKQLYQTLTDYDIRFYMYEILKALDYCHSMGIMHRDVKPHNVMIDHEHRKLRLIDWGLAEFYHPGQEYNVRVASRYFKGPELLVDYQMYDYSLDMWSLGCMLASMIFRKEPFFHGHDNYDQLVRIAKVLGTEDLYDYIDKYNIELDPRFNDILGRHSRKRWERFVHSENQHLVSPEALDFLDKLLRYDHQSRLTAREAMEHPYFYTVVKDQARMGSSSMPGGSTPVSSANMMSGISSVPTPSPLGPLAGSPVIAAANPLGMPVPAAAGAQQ

[12] = target: DCLK3 (human) (UniProt Q9C098)
[13] = target: DMPK (human) (UniProt Q09013)
[14] = test system: EGFR (human), P00533 [746-750 del]
[15] = test system: EGFR (human), P00533 [747-751 del / S ins]
[16] = target: EPHB1 (human) (UniProt P54762)
[17] = target: GRK7 (human) (UniProt Q8WTQ7)
[18] = target: GSK3A (human) (UniProt P49840)
[19] = target: HIPK3 (human) (UniProt Q9H422)
[20] = target: ICK (human) (UniProt Q9UPZ9)
[21] = target: IGF1R (human) (UniProt P08069)
[22] = target: IRAK1 (human) (UniProt P51617)
IRAK1 (human), sequence (P51617 whole entry, looked up): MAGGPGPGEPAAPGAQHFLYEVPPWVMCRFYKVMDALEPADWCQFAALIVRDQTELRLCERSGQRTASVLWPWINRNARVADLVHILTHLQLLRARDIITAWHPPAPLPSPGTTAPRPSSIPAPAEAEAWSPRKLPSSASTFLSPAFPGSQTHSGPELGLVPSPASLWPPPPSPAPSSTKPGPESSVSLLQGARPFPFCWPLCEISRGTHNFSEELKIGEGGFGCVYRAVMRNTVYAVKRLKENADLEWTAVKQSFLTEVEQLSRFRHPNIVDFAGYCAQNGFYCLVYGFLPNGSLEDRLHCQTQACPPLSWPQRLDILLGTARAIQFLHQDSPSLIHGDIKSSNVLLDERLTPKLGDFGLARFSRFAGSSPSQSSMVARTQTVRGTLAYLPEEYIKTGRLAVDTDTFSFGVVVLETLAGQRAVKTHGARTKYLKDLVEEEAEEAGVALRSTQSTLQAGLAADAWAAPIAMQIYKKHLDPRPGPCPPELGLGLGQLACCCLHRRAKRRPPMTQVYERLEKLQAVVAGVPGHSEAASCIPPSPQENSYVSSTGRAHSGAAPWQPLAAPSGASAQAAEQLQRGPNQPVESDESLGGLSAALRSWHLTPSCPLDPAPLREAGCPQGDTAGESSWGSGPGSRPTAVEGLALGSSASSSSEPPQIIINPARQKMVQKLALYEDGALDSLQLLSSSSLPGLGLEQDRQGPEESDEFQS

[23] = test system: LRRK2 (human), Q5S007 [G2019S]
[24] = target: MAP3K13 (human) (UniProt O43283)
[25] = target: MAP3K15 (human) (UniProt Q6ZN16)
[26] = target: MAPK7 (human) (UniProt Q13164)
[27] = test system: MET (human), P08581 [Y1235D]
[28] = target: MST4 (human) (UniProt Q9P289)
MST4 (human), sequence (Q9P289 whole entry, looked up): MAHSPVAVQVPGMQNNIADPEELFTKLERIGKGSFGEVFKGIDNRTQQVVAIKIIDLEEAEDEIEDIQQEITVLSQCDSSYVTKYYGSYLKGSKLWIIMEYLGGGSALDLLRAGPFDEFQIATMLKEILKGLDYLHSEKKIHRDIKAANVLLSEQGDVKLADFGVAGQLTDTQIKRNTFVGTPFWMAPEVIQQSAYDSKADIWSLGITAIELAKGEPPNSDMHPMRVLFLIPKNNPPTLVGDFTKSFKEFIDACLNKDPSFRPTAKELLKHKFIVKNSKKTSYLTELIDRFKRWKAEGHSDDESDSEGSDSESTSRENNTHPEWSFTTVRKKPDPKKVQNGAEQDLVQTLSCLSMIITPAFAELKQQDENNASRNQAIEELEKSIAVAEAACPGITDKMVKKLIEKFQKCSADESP

[29] = target: MYLK (human) (UniProt Q15746)
[30] = target: NLK (human) (UniProt Q9UBE8)
[31] = target: PAK2 (human) (UniProt Q13177)
[32] = target: PKN3 (M.tuberculosis) (UniProt Q6P5Z2)
[33] = target: RIPK2 (human) (UniProt O43353)
[34] = target: RPS6KA6 KD1 (human) (UniProt Q9UK32)
RPS6KA6 KD1 (human), sequence (Q9UK32 whole entry, looked up): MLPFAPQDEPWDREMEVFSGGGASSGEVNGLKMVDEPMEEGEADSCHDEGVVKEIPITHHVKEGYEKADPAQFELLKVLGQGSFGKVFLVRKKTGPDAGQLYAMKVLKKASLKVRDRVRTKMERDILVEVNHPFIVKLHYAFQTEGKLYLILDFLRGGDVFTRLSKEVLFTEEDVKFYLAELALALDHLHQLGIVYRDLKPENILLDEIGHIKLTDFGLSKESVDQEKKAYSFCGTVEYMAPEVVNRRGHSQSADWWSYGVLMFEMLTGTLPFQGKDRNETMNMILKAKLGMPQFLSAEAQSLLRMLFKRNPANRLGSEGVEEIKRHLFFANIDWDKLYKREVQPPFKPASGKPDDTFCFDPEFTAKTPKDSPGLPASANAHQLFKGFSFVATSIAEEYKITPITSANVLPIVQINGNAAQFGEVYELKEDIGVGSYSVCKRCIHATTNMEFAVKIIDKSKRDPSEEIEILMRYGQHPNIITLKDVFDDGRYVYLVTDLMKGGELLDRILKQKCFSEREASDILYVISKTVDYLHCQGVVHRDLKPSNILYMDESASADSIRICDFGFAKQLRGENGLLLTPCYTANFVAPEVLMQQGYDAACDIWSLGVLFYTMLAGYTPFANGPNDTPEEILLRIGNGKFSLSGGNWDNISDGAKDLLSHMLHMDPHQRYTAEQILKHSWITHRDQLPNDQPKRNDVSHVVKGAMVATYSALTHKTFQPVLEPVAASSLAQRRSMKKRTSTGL

[35] = target: SLK (human) (UniProt Q9H2G2)
[36] = target: STK32C (human) (UniProt Q86UX6)
STK32C (human), sequence (Q86UX6 whole entry, looked up): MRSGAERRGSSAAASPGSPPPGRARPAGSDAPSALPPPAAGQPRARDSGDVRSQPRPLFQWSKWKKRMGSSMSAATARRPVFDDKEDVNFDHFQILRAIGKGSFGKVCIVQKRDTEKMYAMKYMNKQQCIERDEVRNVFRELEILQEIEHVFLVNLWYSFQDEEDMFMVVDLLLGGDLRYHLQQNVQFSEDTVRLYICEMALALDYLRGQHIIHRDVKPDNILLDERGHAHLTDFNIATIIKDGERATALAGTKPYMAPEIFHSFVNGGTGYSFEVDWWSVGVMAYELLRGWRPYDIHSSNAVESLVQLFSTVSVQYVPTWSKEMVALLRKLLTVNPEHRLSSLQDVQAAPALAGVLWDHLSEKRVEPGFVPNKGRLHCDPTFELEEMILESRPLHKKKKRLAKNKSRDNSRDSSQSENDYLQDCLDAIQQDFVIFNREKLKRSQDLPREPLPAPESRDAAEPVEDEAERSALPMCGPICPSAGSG

[37] = target: TAOK3 (human) (UniProt Q9H2K8)
TAOK3 (human), sequence (Q9H2K8 whole entry, looked up): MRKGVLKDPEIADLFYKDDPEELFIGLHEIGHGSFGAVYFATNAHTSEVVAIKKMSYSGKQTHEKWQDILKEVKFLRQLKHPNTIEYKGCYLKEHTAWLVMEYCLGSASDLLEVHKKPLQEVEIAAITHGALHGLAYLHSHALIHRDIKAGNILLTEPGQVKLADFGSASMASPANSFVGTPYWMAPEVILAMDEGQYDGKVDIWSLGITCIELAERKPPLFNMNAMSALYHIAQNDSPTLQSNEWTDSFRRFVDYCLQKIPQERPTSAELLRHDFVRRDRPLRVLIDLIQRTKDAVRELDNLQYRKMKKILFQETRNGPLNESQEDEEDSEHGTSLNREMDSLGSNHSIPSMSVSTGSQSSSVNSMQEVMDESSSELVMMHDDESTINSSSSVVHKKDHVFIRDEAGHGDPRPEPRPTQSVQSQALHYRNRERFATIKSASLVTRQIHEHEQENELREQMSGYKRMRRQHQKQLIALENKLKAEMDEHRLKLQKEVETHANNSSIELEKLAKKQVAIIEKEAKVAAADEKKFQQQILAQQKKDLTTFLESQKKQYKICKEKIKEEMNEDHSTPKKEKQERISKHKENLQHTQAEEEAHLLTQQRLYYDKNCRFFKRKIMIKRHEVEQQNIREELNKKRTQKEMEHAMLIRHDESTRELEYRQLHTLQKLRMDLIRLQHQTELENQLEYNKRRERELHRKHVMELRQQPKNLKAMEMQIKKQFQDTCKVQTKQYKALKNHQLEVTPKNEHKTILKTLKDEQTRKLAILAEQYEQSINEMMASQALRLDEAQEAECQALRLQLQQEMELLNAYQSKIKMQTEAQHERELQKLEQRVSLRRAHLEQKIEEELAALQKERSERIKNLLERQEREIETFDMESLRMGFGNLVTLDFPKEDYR

[38] = target: TTK (human) (UniProt P33981)
[39] = target: TYK2 JH2 pseudokinase (human) (UniProt P29597)
[40] = target: YSK4 (human) (UniProt Q56UN5)

ABL2 (human), sequence (P42684 whole entry, looked up): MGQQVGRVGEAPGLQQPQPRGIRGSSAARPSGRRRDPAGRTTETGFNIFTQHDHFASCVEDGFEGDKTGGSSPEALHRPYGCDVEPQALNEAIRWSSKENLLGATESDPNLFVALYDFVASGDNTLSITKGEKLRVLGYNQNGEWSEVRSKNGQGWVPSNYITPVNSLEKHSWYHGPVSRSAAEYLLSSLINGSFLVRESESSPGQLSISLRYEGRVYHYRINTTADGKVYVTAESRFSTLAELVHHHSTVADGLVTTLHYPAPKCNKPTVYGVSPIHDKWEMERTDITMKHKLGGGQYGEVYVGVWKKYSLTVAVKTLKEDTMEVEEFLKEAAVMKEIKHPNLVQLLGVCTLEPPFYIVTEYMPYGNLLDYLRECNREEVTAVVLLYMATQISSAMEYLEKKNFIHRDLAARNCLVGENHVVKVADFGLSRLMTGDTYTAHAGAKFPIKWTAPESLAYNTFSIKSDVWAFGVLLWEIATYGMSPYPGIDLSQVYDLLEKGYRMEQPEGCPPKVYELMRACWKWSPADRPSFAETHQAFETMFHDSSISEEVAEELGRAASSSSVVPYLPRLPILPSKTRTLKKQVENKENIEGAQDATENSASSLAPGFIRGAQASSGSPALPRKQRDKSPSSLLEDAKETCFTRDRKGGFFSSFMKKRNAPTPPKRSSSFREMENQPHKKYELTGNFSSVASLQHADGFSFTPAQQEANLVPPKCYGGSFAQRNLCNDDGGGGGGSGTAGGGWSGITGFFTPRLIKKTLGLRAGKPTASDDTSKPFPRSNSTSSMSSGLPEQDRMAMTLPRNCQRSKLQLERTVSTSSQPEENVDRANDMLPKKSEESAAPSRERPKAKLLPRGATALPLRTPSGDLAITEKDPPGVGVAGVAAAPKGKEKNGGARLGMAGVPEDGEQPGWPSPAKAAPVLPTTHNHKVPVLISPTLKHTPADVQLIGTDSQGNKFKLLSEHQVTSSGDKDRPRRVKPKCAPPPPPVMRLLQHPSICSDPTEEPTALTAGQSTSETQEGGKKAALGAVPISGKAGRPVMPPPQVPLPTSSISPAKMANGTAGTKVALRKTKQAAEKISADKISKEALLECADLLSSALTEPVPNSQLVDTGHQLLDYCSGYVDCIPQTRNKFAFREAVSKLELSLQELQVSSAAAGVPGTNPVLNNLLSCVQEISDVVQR

CCc1ccc(C(=O)Nc2cc(CN3CCN(C)CC3)cc(C(F)(F)F)c2)cc1C#Cc1cnc2ccnn2c1
kinase still bound, per cent of control [1]: 100%
kinase still bound, per cent of control [2]: 39%
kinase still bound, per cent of control [3]: 100%
kinase still bound, per cent of control [4]: 100%
kinase still bound, per cent of control [5]: 71%
kinase still bound, per cent of control [6]: 79%
kinase still bound, per cent of control [7]: 100%
kinase still bound, per cent of control [8]: 84%
kinase still bound, per cent of control [9]: 100%
kinase still bound, per cent of control [10]: 100%
kinase still bound, per cent of control [11]: 100%
kinase still bound, per cent of control [12]: 100%
kinase still bound, per cent of control [13]: 100%
kinase still bound, per cent of control [14]: 100%
kinase still bound, per cent of control [15]: 100%
kinase still bound, per cent of control [16]: 96%
kinase still bound, per cent of control [17]: 100%
kinase still bound, per cent of control [18]: 100%
kinase still bound, per cent of control [19]: 100%
kinase still bound, per cent of control [20]: 100%
kinase still bound, per cent of control [21]: 100%
kinase still bound, per cent of control [22]: 100%
kinase still bound, per cent of control [23]: 94%
kinase still bound, per cent of control [24]: 71%
kinase still bound, per cent of control [25]: 100%
kinase still bound, per cent of control [26]: 100%
kinase still bound, per cent of control [27]: 55%
kinase still bound, per cent of control [28]: 100%
kinase still bound, per cent of control [29]: 100%
kinase still bound, per cent of control [30]: 45%
kinase still bound, per cent of control [31]: 76%
kinase still bound, per cent of control [32]: 78%
kinase still bound, per cent of control [33]: 56%
kinase still bound, per cent of control [34]: 100%
kinase still bound, per cent of control [35]: 66%
kinase still bound, per cent of control [36]: 96%
kinase still bound, per cent of control [37]: 100%
kinase still bound, per cent of control [38]: 77%
kinase still bound, per cent of control [39]: 100%
kinase still bound, per cent of control [40]: 100%
